From patent US10561658B2, “Thieno- and pyrrolopyrimidine analogues as anticancer agents and methods of use thereof” (UNIVERSITY OF MARYLAND, BALTIMORE COUNTY, priority 2015, dated 2020)
≈ marks a conversion by molar mass, not a printed value. Read-outs that look alike come from different tables or passages of the source.

How the values were obtained:
Assay type in all cases: cell-based
[1] = system: murine leukemia L1210 cells; assay: Cell proliferation assay, L1210; conditions: Mus musculus
Description: Cell proliferation assays for several of the compounds were performed on L1210, a mouse lymphocytic leukemia cell line; CCRF-CEM [39] an acute lymphoblastic leukemia cell line; and HeLa, a human cancer cell line derived from a human cervical adenocarcinoma. Murine Leukemia L1210, human lymphocytic CEM and human cervix carcinoma HeLa cells were obtained from the American Type Culture Collection (ATCC) (Rockville, Md.). All assays were performed in 96-well microtiter plates. To each well were added (5-7.5)×10^4 tumor cells and a given amount of the test compound. The cells were allowed to proliferate for 48 h (murine leukemia L1210 cells) or 72 h (human lymphocytic CEM and human cervix carcinoma HeLa cells) at 37° C. in a humidified CO2-controlled atmosphere. At the end of the incubation period, the cells were counted in a Coulter counter. The IC50 (50% inhibitory concentration) was defined as the concentration of the compound that inhibited cell proliferation by 50%. […] Presence of C7 iodine on the 2,4-dichloro pyrrolo[3,2-d] (compound 20) increases the anticancer activity by a factor of 5 when compared to compound 19. […] This alludes to a) importance of C7-I towards activity against cancer cell lines for the 2,4-O-benzylated analogues (15 and 16).

[2] = system: Escherichia coli ATCC 25922; assay: Antimicrobial growth inhibition, E. coli; conditions: ATCC25922; Escherichia coli ATCC 25922, 100 μM
Description: (§1) Evaluation of antimicrobial activity in vitro. Compounds were tested against the following panel of bacteria and fungi purchased from the American Type Culture Collection (ATCC). Briefly, bacteria were grown to mid-log phase, diluted with fresh medium to an optical density at 600 nm (OD600) of 0.030-0.060 and then diluted again 1:10. This suspension (195 μL) was added to wells in a 96 well microtiter plate (Sarstedt) and 5 μL of compound dissolved in DMSO was added to give a final concentration of 100-0.1 μM at 2.5% DMSO by volume. A DMSO negative control and standard antibiotic positive controls were included in each plate. All compounds were tested in triplicate for each concentration. Plates were sealed with parafilm, placed in a Ziploc bag to prevent evaporation, and incubated at 30° C. (fungi) or 37° C. (bacteria) for 16-20 hours (48 hours for C. neoformans). The OD600 values for each well were determined with a plate reader (Biotek, EL800) and the data were standardized to the DMSO control wells after subtracting the background from blank medium. Initial single concentrations were tested at 100 μM and active compounds were further tested with at least nine concentrations for a full dose response. Dose response curves were generated using GraphPad Prism 5 software and used to determine the MIC95 concentrations (minimal concentration that inhibits 95% of growth). Compounds 1, 2, 5 and 19 were screened for growth inhibition activity against a panel of bacteria and fungi at a concentration of 100 as shown in Table 2. Compound 5 was included to test the importance of the C4-Cl substituent for activity across a broader range of biological systems.

Cryptococcus neoformans = assay: Antifungal growth inhibition and MIC95, C. neoformans strains
Description: as §1
Compounds 1 and 2 were further tested against the susceptible fungal strains to determine the MIC95 values.

[3] = system: NCI-60 human tumor cell lines; assay: NCI60 human tumor cell line screen; conditions: NCI60, FIG. 4
Description: Lead compounds 1, 2 and 19 were evaluated for anti-cancer activity at nM to uM concentrations in cellular screens.
The lead halogenated pyrrolopyrimidines and thienopyrimidines of the present invention were tested in the human cell line screen which is composed of 60 different human tumor cell lines (NCI-60) representing leukemia, melanoma, lung cancer, colon cancer, brain cancer, ovary cancer, breast cancer, prostate cancer and kidney cancer. Testing specifics can be found at the National Cancer Institute at http://dtp.nci.nih.gov/branches/btb/ivelsp.html. Compounds 1, 2 and 19 were testing initially at a single dose (10^−5M) in the full cell panel. The results of the one-dose are reported as a mean graph of the percent of the growth of the treated cells. Both growth inhibition (values between 0 and 100) and lethality (values less than 0) are detectable. To evaluate the test results, a value of 100 means no growth inhibition. A value of 40 would mean 60% growth inhibition. A value of zero means no net growth over the course of the experiment. A value of −40 means 40% lethality and a value of −100 means all the cells are dead.

[4] = ATCC66031, Cryptococcus neoformans ATCC 66031, 100 μM
[5] = C. neoformans VANC-R265, 100 μM
[6] = FIG. 7 concentration, said in b126 to be the IC50 from cell viability assays, read-out: IC50 concentration used for L1210 cell cycle analysis
[7] = C. neoformans B4546, minimum concentration for inhibition by 95%
[8] = C. neoformans JEC20, minimum concentration for inhibition by 95%

Structure (SMILES)	IC50 ([1]; 48 h proliferation, Coulter counter, read-out: IC50 L1210) [µM]	inhibition at 100 µM [2] [%]	inhibition at 100 µM (Cryptococcus neoformans; [4]) [%]	inhibition at 100 µM (Cryptococcus neoformans; C. neoformans B4546, 100 μM) [%]	inhibition at 100 µM (Cryptococcus neoformans; C. neoformans JEC20, 100 μM) [%]	inhibition at 100 µM (Cryptococcus neoformans; [5]) [%]	activity against non-small cell lung and CNS cancers [3]	anti-cancer activity against melanoma, breast, colon and renal cancers [3]	IC50 [1, 6] [µM]	MIC (Cryptococcus neoformans; [7]) [µM]	MIC (Cryptococcus neoformans; [8]) [µM]
Clc1nc(Cl)c2[nH]ccc2n1 [Compound 19, 2,4-Dichloropyrrolo[3,2-d]pyrimidine]	6.8 ± 2.8	< 43	< 43	< 43	< 43	< 43	little or no activity	selective activity	–	–	–
Clc1nc(Cl)c2sccc2n1 [Compound 1, 2,4-Dichlorothieno[3,2-d]pyrimidine]	–	< 43	101	96	100	93	little or no activity	selective activity	0.32	34.6 (≈ 7.1 µg/mL)	16.6 (≈ 3.4 µg/mL)
Clc1nc(Cl)c2scc(Br)c2n1 [Compound 2, 7-Bromo-2,4-dichlorothieno[3,2-d]pyrimidine]	–	< 43	55	82	91	67	little or no activity	selective activity	5.4	7 (≈ 1.99 µg/mL)	5.8 (≈ 1.65 µg/mL)
